Results reported in patent publication US20250313548A1 (Actio Biosciences, Inc., priority 2023, published 2025).

Each compound was assayed against human, KCNT1 (Homo sapiens (Human), UniProt Q5JUK3) (assay: FLIPR Tl/K Flux Assay). Conditions: HEK293 cells stably expressing human KCNT1; Tl+ flux stimulated with EC80 of agonist Loxapine.
Format: cell-based
Procedure: HEK293 cells stably expressing human, KCNT1 were cultured in DMEM, 10% FBS, 100 U/mL penicillin-streptomycin and […] puromycin for selection purposes. One day before the assay, cells were detached using TrypLE™ Express and counted using a cell counter. Only cells with >85% viability were used for the assay. […] The cells were incubated overnight at 37° C., 5% (v/v) CO2.
On the day of the assay, the reagents were prepared following the FLIPR® Potassium Assay Kit manual: prepare 2× dye solution, dilute the dye with assay buffer (20 mM HEPES in 1× HBSS, PH7.4), addition of probenecid to a final concentration of 5 mM, and vortexed vigorously for 1-2 minutes. The cell plate was flicked to remove medium and tapped on paper towels to remove excess media. […] The cell plate was moved to a plate shaker, agitated at 600 rpm for two minutes, and then incubated at 25° C. for one hour.
The compounds were prepared in DMSO and transferred to a 384-well compound plate (PP, low binding), referred to as a source plate. Reference agonist (300 nM) compound and test inhibitor (10 mM) compounds were added to the compound plate and a 4-fold serial dilution was performed in DMSO. Using an ECHO dispenser, compounds were dispensed at 90 nL/well from the source plate to a 384-well compound plate (PP, low binding). After the dispensing was complete, 30 µL/well assay buffer was added to the compound plate and mixed for two minutes on a plate shaker. The cell plate, compound plate, and tips were loaded into the FLIPR instrument, and a transfer of 10 μl of 3× compound to the cell plate was initiated. The treated cell plate was kept at in the dark at 25° C. for 30 minutes. Chloride-free stimulation buffer containing 4× 2 mM Tl+ and 4×EC80 of agonist Loxapine was loaded into a 384-well compound plate (PP, low binding). After the 30-minute incubation, the cell plate, compound plate containing stimulation buffer, and FLIPR tips were loaded into the FLIPR instrument. After a baseline read, the FLIPR initiates a transfer of 10 μL of stimulation buffer containing Loxapine to the cell plate. The plate was read for 160 sec with 1 second interval reads to obtain the data.
The normalized fluorescence reading (RFU) was calculated as shown follow, while Fmax and Fmin stand for maximum and minimum of signal during defined time window. The IC50 was calculated by fitting % inhibition against log of compound concentrations with Hill equation using XLfit.

Sequence of human, KCNT1 (Q5JUK3 whole entry): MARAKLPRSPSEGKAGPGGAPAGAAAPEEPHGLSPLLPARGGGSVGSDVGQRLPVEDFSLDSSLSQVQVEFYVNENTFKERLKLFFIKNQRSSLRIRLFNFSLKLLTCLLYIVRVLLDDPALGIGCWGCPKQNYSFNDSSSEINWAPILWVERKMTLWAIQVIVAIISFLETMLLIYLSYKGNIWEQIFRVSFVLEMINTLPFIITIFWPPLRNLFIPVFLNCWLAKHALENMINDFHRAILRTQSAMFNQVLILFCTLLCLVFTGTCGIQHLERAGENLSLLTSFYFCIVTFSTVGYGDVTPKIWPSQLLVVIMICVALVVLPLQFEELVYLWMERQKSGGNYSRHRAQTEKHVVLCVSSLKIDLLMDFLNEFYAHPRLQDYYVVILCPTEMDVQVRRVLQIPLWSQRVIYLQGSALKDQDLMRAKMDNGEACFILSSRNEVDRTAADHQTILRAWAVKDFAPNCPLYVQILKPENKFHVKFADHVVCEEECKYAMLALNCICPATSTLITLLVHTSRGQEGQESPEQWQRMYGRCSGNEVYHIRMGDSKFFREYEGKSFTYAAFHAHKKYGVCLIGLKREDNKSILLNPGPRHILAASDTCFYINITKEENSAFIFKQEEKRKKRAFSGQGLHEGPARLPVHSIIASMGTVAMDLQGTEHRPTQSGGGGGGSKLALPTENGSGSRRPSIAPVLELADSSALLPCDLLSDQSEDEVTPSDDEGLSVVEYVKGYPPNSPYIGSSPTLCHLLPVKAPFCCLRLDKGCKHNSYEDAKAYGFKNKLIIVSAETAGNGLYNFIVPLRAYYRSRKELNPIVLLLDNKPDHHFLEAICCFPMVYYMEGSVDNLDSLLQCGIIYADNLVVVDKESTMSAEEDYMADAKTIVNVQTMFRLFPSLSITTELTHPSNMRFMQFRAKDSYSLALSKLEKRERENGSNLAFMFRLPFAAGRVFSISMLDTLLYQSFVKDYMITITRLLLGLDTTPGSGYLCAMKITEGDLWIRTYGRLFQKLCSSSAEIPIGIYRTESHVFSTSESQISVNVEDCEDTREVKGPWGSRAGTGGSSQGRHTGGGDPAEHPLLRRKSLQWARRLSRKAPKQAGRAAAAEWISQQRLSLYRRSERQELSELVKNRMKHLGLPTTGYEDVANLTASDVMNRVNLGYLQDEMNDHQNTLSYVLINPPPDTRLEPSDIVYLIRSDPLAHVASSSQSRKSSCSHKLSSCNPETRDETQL

| SMILES | IC50 [nM] |
| --- | --- |
| Cn1nc(C2CC2)cc1C(=O)NC1CCCc2nn(-c3ccnc(C(F)(F)F)c3)cc21 (racemic) [Compound I-11, (rac)-3-Cyclopropyl-1-methyl-N-(2-(2-(trifluoromethyl)pyridin-4-yl)-4,5,6,7-tetrahydro-2H-indazol-4-yl)-1H-pyrazole-5-carboxamide] | 250 to 500 |
| CCOc1cc(-n2cc3c(n2)CCCC3NC(=O)c2cccc(C(F)(F)F)c2)ccn1 (racemic) [Compound I-18, (rac)-N-(2-(2-Ethoxypyridin-4-yl)-4,5,6,7-tetrahydro-2H-indazol-4-yl)-3-(trifluoromethyl)benzamide] | < 250 |
| O=C(NC1CCCc2nn(-c3ccnc(C(F)(F)F)c3)cc21)c1ccc(C(F)(F)F)nc1 (racemic) [Compound I-19, (rac)-6-(Trifluoromethyl)-N-(2-(2-(trifluoromethyl)pyridin-4-yl)-4,5,6,7-tetrahydro-2H-indazol-4-yl)nicotinamide] | 250 to 500 |
| O=C(NC1CCCc2nn(-c3ccnc(C(F)(F)F)c3)cc21)c1ccnc(C(F)(F)F)c1 (racemic) [Compound I-20, (rac)-2-(Trifluoromethyl)-N-(2-(2-(trifluoromethyl)pyridin-4-yl)-4,5,6,7-tetrahydro-2H-indazol-4-yl)isonicotinamide] | < 250 |
| COc1cc(C(=O)NC2CCCc3nn(-c4ccnc(C(F)(F)F)c4)cc32)n(C)n1 (racemic) [Compound I-21, (rac)-3-Methoxy-1-methyl-N-(2-(2-(trifluoromethyl)pyridin-4-yl)-4,5,6,7-tetrahydro-2H-indazol-4-yl)-1H-pyrazole-5-carboxamide] | > 1000 |
| CCOc1cc(C(=O)NC2CCCc3nn(-c4ccnc(C(F)(F)F)c4)cc32)n(C)n1 (racemic) [Compound I-22, (rac)-3-Ethoxy-1-methyl-N-(2-(2-(trifluoromethyl)pyridin-4-yl)-4,5,6,7-tetrahydro-2H-indazol-4-yl)-1H-pyrazole-5-carboxamide] | 250 to 500 |
| COCc1cc(C(=O)NC2CCCc3nn(-c4ccnc(C(F)(F)F)c4)cc32)n(C)n1 (racemic) [Compound I-23, (rac)-3-(Methoxymethyl)-1-methyl-N-(2-(2-(trifluoromethyl)pyridin-4-yl)-4,5,6,7-tetrahydro-2H-indazol-4-yl)-1H-pyrazole-5-carboxamide] | > 1000 |
| Cn1cc(C(F)(F)F)nc1C(=O)NC1CCCc2nn(-c3ccnc(C(F)(F)F)c3)cc21 (racemic) [Compound I-24, (rac)-1-Methyl-4-(trifluoromethyl)-N-(2-(2-(trifluoromethyl)pyridin-4-yl)-4,5,6,7-tetrahydro-2H-indazol-4-yl)-1H-imidazole-2-carboxamide] | 500 to 1000 |
| COc1cc(-n2cc3c(n2)CCCC3NC(=O)c2cc(C(F)(F)F)nn2C)ccn1 (racemic) [Compound I-25, (rac)-N-(2-(2-Methoxypyridin-4-yl)-4,5,6,7-tetrahydro-2H-indazol-4-yl)-1-methyl-3-(trifluoromethyl)-1H-pyrazole-5-carboxamide] | 250 to 500 |
| Cn1nc2ccccc2c1C(=O)NC1CCCc2nn(-c3ccnc(C(F)(F)F)c3)cc21 (racemic) [Compound I-26, (rac)-2-Methyl-N-(2-(2-(trifluoromethyl)pyridin-4-yl)-4,5,6,7-tetrahydro-2H-indazol-4-yl)-2H-indazole-3-carboxamide] | 250 to 500 |
| CCOc1cc(-n2cc3c(n2)CCCC3NC(=O)c2cc(C(F)(F)F)ccc2C)ccn1 (racemic) [Compound I-28, (rac)-N-(2-(2-Ethoxypyridin-4-yl)-4,5,6,7-tetrahydro-2H-indazol-4-yl)-2-methyl-5-(trifluoromethyl)benzamide] | 250 to 500 |
| Cc1ccccc1C(=O)NC1CCCc2nn(-c3ccnc(C(F)(F)F)c3)cc21 (racemic) [Compound I-29, (rac)-2-Methyl-N-(2-(2-(trifluoromethyl)pyridin-4-yl)-4,5,6,7-tetrahydro-2H-indazol-4-yl)benzamide] | > 1000 |
| CCOc1cc(-n2cc3c(n2)CCCC3NC(=O)c2ccc3ccccc3c2)ccn1 (racemic) [Compound I-30, (rac)-N-(2-(2-Ethoxypyridin-4-yl)-4,5,6,7-tetrahydro-2H-indazol-4-yl)-2-naphthamide] | 500 to 1000 |
| O=C(NC1CCCc2nn(-c3ccnc(C(F)(F)F)c3)cc21)c1ccccn1 (racemic) [Compound I-31, (rac)-N-(2-(2-(Trifluoromethyl)pyridin-4-yl)-4,5,6,7-tetrahydro-2H-indazol-4-yl)picolinamide] | > 1000 |
| O=C(NC1CCCc2nn(-c3ccnc(C(F)(F)F)c3)cc21)c1cccnc1 (racemic) [Compound I-32, (rac)-N-(2-(2-(Trifluoromethyl)pyridin-4-yl)-4,5,6,7-tetrahydro-2H-indazol-4-yl)nicotinamide] | > 1000 |

The next lines start with the values.

| IC50 [nM] | SMILES |
| --- | --- |
| < 250 | Cn1nc(C(F)(F)F)cc1C(=O)NC1CCc2nn(-c3ccnc(C(F)(F)F)c3)cc21 (racemic) [Compound I-1, (rac)-1-Methyl-3-(trifluoromethyl)-N-(2-(2-(trifluoromethyl)pyridin-4-yl)-2,4,5,6-tetrahydrocyclopenta[c]pyrazol-4-yl)-1H-pyrazole-5-carboxamide] |
| < 250 | Cn1nc(C(F)(F)F)cc1C(=O)NC1CCCc2nn(-c3ccnc(C(F)(F)F)c3)cc21 (racemic) [Compound I-4, (rac)-1-Methyl-3-(trifluoromethyl)-N-(2-(2-(trifluoromethyl)pyridin-4-yl)-4,5,6,7-tetrahydro-2H-indazol-4-yl)-1H-pyrazole-5-carboxamide] |
| < 250 | CCn1nc(C(F)(F)F)cc1C(=O)NC1CCCc2nn(-c3ccnc(C(F)(F)F)c3)cc21 (racemic) [Compound I-7, (rac)-1-Ethyl-3-(trifluoromethyl)-N-(2-(2-(trifluoromethyl)pyridin-4-yl)-4,5,6,7-tetrahydro-2H-indazol-4-yl)-1H-pyrazole-5-carboxamide] |
| < 250 | CC(C)n1nc(C(F)(F)F)cc1C(=O)NC1CCCc2nn(-c3ccnc(C(F)(F)F)c3)cc21 (racemic) [Compound I-8, (rac)-1-Isopropyl-3-(trifluoromethyl)-N-(2-(2-(trifluoromethyl)pyridin-4-yl)-4,5,6,7-tetrahydro-2H-indazol-4-yl)-1H-pyrazole-5-carboxamide] |
| < 250 | Cn1nc(C(C)(F)F)cc1C(=O)NC1CCCc2nn(-c3ccnc(C(F)(F)F)c3)cc21 (racemic) [Compound I-10, (rac)-3-(1,1-Difluoroethyl)-1-methyl-N-(2-(2-(trifluoromethyl)pyridin-4-yl)-4,5,6,7-tetrahydro-2H-indazol-4-yl)-1H-pyrazole-5-carboxamide] |
| < 250 | Cn1nc(C(F)F)cc1C(=O)NC1CCCc2nn(-c3ccnc(C(F)(F)F)c3)cc21 (racemic) [Compound I-12, (rac)-3-(Difluoromethyl)-1-methyl-N-(2-(2-(trifluoromethyl)pyridin-4-yl)-4,5,6,7-tetrahydro-2H-indazol-4-yl)-1H-pyrazole-5-carboxamide] |
| < 250 | O=C(NC1CCCc2nn(-c3ccnc(C(F)(F)F)c3)cc21)c1ccccc1 (racemic) [Compound I-13, (rac)-N-(2-(2-(Trifluoromethyl)pyridin-4-yl)-4,5,6,7-tetrahydro-2H-indazol-4-yl)benzamide] |
| < 250 | CCOc1cc(-n2cc3c(n2)CCCC3NC(=O)c2cc(Cl)cc(C(F)(F)F)c2)ccn1 (racemic) [Compound I-14, (rac)-3-Chloro-N-(2-(2-ethoxypyridin-4-yl)-4,5,6,7-tetrahydro-2H-indazol-4-yl)-5-(trifluoromethyl)benzamide] |
| < 250 | CCOc1cc(-n2cc3c(n2)CCCC3NC(=O)c2cc(C)cc(C(F)(F)F)c2)ccn1 (racemic) [Compound I-15, (rac)-N-(2-(2-Ethoxypyridin-4-yl)-4,5,6,7-tetrahydro-2H-indazol-4-yl)-3-methyl-5-(trifluoromethyl)benzamide] |
| < 250 | O=C(NC1CCCc2nn(-c3ccnc(C(F)(F)F)c3)cc21)c1ccc(C(F)(F)F)cc1 (racemic) [Compound I-16, (rac)-4-(Trifluoromethyl)-N-(2-(2-(trifluoromethyl)pyridin-4-yl)-4,5,6,7-tetrahydro-2H-indazol-4-yl)benzamide] |
| < 250 | Cc1cccc(C(=O)NC2CCCc3nn(-c4ccnc(C(F)(F)F)c4)cc32)c1 (racemic) [Compound I-17, (rac)-3-Methyl-N-(2-(2-(trifluoromethyl)pyridin-4-yl)-4,5,6,7-tetrahydro-2H-indazol-4-yl)benzamide] |
